Results: PMC8976278, “Hesperidin identified from Citrus extracts potently inhibits HCV genotype 3a NS3 protease” (BMC Complementary Medicine and Therapies, 2022)
≈ marks a conversion by molar mass, not a printed value. Like-named read-outs stand apart in the source and are kept apart here.

Assays:
[1] = biological target: NS3-NS4A protease of HCV genotype-3a (Hepatitis C virus genotype 3a, UniProt Q81258); assay: FRET assay of NS3-NS4A protease activity with depsipeptide substrate; format: biochemical; parameters: Activity, Slope trial 1st / Activity, Slope trial 2nd / Activity, Slope trial 3rd: unit not given here
Method: For measuring the protease activity, a FRET assay was performed using a depsipeptide substrate, Ac-Asp-Glu-Asp-(EDANS)-Glu-Glu-Abu-ψ-[COO]-Ala-Ser-Lys(DABCYL)-NH2 (AnaSpec,US). The fluorescence signal generated upon cleavage of the depsipeptide substrate by the NS3 protease domain was continuously recorded using excitation and emission wavelengths of 355 nm and 510 nm, respectively, and a fluorescence microplate reader (TECAN, US). In the case of the full-length NS3 protease, the reaction buffer (50 mM HEPES, pH 7.5, 0.4% Triton X-100, 10 mM DTT (Thermo Fisher Scientific), 3% DMSO (Thermo Fisher Scientific), and 40% glycerol) was pre-incubated (at 30 °C for 10 min) with 25 µM of a synthetic peptide, […] (purchased from LifeTein LLC, US), representing the core of the NS4A cofactor required for the catalytic activity. For the FRET assay, 1 nM of the full-length NS3 protease was used. In the case of NS3-NS4A, the protein (0.5 nM) was incubated in the reaction buffer at 30 °C for 10 min (without the synthetic peptide). The reaction was initiated by the addition of the substrate (10 µL) in a two-fold serial dilution up to a concentration of 2 µM. Reaction wells without the substrate were used as negative controls. For correction of the inner filter effect, a previously described procedure was followed. Kinetic parameters (such as kcat, Km, and kcat/Km) were calculated using the Michaelis–Menten equation. Data were fitted to the equation by non-linear regression using the GraphPad Prism® software (version 7.04, GraphPad Prism®, Inc., USA).
For validation of the FRET assay, commercially available inhibitors (asuanaprevir, ciluprevir, danoprevir, and telaprevir (purchased from AdooQ® Bioscience, US) were used to inhibit the activity of the target enzyme (NS3-NS4A protease of HCV genotype-3a), as described previously. Briefly, 1 µM of the depsipeptide substrate was added to the protein, pre-incubated with a given inhibitor, and fluorescence measurements were recorded for 20, 30, or 60 min using 355 nm and 510 nm as excitation and emission wavelengths, respectively. The IC50 value, representing the half-maximal inhibitory concentration, of each commercial inhibitor was calculated using the GraphPad Prism® software (version 7.04, GraphPad Prism®, Inc., USA). The experiment was performed in triplicates, and the average value obtained was considered as the IC50 value.
Reaction mixtures (300 µL) were prepared in the assay buffer (50 mM HEPES, pH 7.5, 0.4% Triton X-100, 10 mM DTT, and 40% glycerol). For initial screening, 3.33 mg of the plant extract was dissolved in 1 mL DMSO, and was transferred to the reaction buffer such that the final concentration of DMSO was 3%. The reaction was initiated by adding 0.5 nM NS3-NS4A protease, and the released RET S1 FRET substrate was monitored using a fluorescence microplate reader (TECAN). Reaction mixtures (also containing 3% DMSO) without any plant extract were used for recording blank measurements. The background fluorescence contributed by the plant extract was also recorded. For calculation of the calibration curve, spiking with known amounts (0.25 µM, 0.5 µM, 1 µM, and 2 µM) of the free FRET substrate (RET S1) was made while keeping the reaction mixture at the same volume, containing all the constituents (the plant extract, the assay buffer as well as the enzyme). Slope of the curve was correlated with that obtained from free FRET substrate concentrations without any plant extract as well as the substrate. Initial reaction rates were calculated, and the percentage (%) enzyme inhibition was calculated using the equation: 100 x [a-b/a] where “a” refers to the fluorescence value generated by the reaction mixture only (without the plant extract) and “b” is the solution fluorescence in the presence of the plant extract. […]

HCV NS3 protease = system: HCV NS3 protease; parameters: method as in earlier work; conditions: ref [49], [50]; Table S3 ref [1], [2]; cited from earlier work
[2] = biological target: NS3 protease domain of HCV genotype 3a fused to the cognate NS4A cofactor (NS3-NS4A) (hepatitis C virus genotype 3a)
[3] = FRET assay validation, 1 µM depsipeptide substrate, triplicates, read-out: IC50 value (commercial inhibitors) (converted)

Chain of NS3-NS4A protease of HCV genotype-3a (Q81258 1033-1213, other chains not shown): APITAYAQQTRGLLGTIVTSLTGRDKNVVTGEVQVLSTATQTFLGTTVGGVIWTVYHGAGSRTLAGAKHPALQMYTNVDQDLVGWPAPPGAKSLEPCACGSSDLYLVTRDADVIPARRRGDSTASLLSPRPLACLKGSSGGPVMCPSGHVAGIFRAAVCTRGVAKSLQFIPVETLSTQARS

| Molecule | IC50 [1, 3] [nM] | IC50 value [reported in the literature] (HCV NS3 protease) [µg/mL] | Activity, Slope trial 1st ([1]; inhibitor conc. 1.3717 nM) | Activity, Slope trial 2nd ([1]; inhibitor conc. 1.3717 nM) | Activity, Slope trial 3rd ([1]; inhibitor conc. 1.3717 nM) | Average Slope ([1]; inhibitor conc. 1.3717 nM) | Activity, Slope trial 1st ([1]; inhibitor conc. 4.1152 nM) | Activity, Slope trial 2nd ([1]; inhibitor conc. 4.1152 nM) | Activity, Slope trial 3rd ([1]; inhibitor conc. 4.1152 nM) | Average Slope ([1]; inhibitor conc. 4.1152 nM) | Activity, Slope trial 1st ([1]; inhibitor conc. 12.3456 nM) | Activity, Slope trial 2nd ([1]; inhibitor conc. 12.3456 nM) | Activity, Slope trial 3rd ([1]; inhibitor conc. 12.3456 nM) | Average Slope ([1]; inhibitor conc. 12.3456 nM) | Activity, Slope trial 1st ([1]; inhibitor conc. 37.037 nM) | Activity, Slope trial 2nd ([1]; inhibitor conc. 37.037 nM) | Activity, Slope trial 3rd ([1]; inhibitor conc. 37.037 nM) | Average Slope ([1]; inhibitor conc. 37.037 nM) | Activity, Slope trial 1st ([1]; inhibitor conc. 111.1111 nM) | Activity, Slope trial 2nd ([1]; inhibitor conc. 111.1111 nM) | further results |
| --- | --- | --- | --- | --- | --- | --- | --- | --- | --- | --- | --- | --- | --- | --- | --- | --- | --- | --- | --- | --- | --- |
| C=C[C@@H]1C[C@]1(NC(=O)[C@@H]1C[C@@H](Oc2ncc(OC)c3ccc(Cl)cc23)CN1C(=O)[C@@H](NC(=O)OC(C)(C)C)C(C)(C)C)C(=O)NS(=O)(=O)C1CC1 [Asunaprevir] | 68.3 |  |  |  |  |  |  |  |  |  |  |  |  |  |  |  |  |  |  |  |  |
| COc1ccc2c(O[C@@H]3C[C@H]4C(=O)N[C@]5(C(=O)O)C[C@H]5/C=C\CCCCC[C@H](NC(=O)OC5CCCC5)C(=O)N4C3)cc(-c3csc(NC(C)C)n3)nc2c1 [Ciluprevir] | 53.2 |  |  |  |  |  |  |  |  |  |  |  |  |  |  |  |  |  |  |  |  |
| CC(C)(C)OC(=O)N[C@H]1CCCCC/C=C\[C@@H]2C[C@@]2(C(=O)NS(=O)(=O)C2CC2)NC(=O)[C@@H]2C[C@@H](OC(=O)N3Cc4cccc(F)c4C3)CN2C1=O [Danoprevir] | 25.1 | 0.0146 (≈ 0.0199 µM) | 1.677 | 2.153 | 9.123 | 4.31 | 1.449 | 1.834 | 9.072 | 4.11 | 0.991 | 0.979 | 5.934 | 2.63 | 0.450 | 0.460 | 2.283 | 1.06 | 0.196 | 0.174 | Activity, Slope trial 3rd ([1]; inhibitor conc. 111.1111 nM): 0.757; Average Slope ([1]; inhibitor conc. 111.1111 nM): 0.37; Activity, Slope trial 1st ([1]; inhibitor conc. 333.3333 nM): 0; Activity, Slope trial 2nd ([1]; inhibitor conc. 333.3333 nM): 0.039; Activity, Slope trial 3rd ([1]; inhibitor conc. 333.3333 nM): 0.003151; Average Slope ([1]; inhibitor conc. 333.3333 nM): 0.01; Activity, Slope trial 1st ([1]; inhibitor conc. 1000 nM): 0; Activity, Slope trial 2nd ([1]; inhibitor conc. 1000 nM): 0; Activity, Slope trial 3rd ([1]; inhibitor conc. 1000 nM): 0; Average Slope ([1]; inhibitor conc. 1000 nM): 0 |
| O=c1oc2c(O)c(O)cc3c(=O)oc4c(O)c(O)cc1c4c23 [Ellagic acid] |  |  |  |  |  |  |  |  |  |  |  |  |  |  |  |  |  |  |  |  | IC50 ([1]; commercially obtained pure compound, hesperidin 1230 to 1.67 µg/mL, read-out: IC50 value (pure natural compound) (converted)): 98000 nM |
| CCC[C@H](NC(=O)[C@@H]1[C@H]2CCC[C@H]2CN1C(=O)[C@@H](NC(=O)[C@@H](NC(=O)c1cnccn1)C1CCCCC1)C(C)(C)C)C(=O)C(=O)NC1CC1 [Telaprevir] | 69.9 | 0.0387 (≈ 0.0569 µM) | 4.176 | 2.087 | 2.395 | 2.88 | 4.77 | 3.604 | 1.309 | 3.22 | 3.041 | 1.613 | 2.131 | 2.26 | 3.796 | 1.828 | 1.004 | 2.20 | 1.774 | 1.116 | Activity, Slope trial 3rd ([1]; inhibitor conc. 111.1111 nM): 0.627; Average Slope ([1]; inhibitor conc. 111.1111 nM): 1.17; Activity, Slope trial 1st ([1]; inhibitor conc. 333.3333 nM): 0.5776; Activity, Slope trial 2nd ([1]; inhibitor conc. 333.3333 nM): 0.3406; Activity, Slope trial 3rd ([1]; inhibitor conc. 333.3333 nM): 0.163; Average Slope ([1]; inhibitor conc. 333.3333 nM): 0.36; Activity, Slope trial 1st ([1]; inhibitor conc. 1000 nM): 1.246; Activity, Slope trial 2nd ([1]; inhibitor conc. 1000 nM): 0.081; Activity, Slope trial 3rd ([1]; inhibitor conc. 1000 nM): 0; Average Slope ([1]; inhibitor conc. 1000 nM): 0.44 |
| depsipeptide substrate Ac-Asp-Glu-Asp-(EDANS)-Glu-Glu-Abu-ψ-[COO]-Ala-Ser-Lys(DABCYL)-NH2 |  |  |  |  |  |  |  |  |  |  |  |  |  |  |  |  |  |  |  |  | Km of cleavage of the depsipeptide substrate by NS3-NS4A (0.5 nM) in the FRET protease assay, Michaelis-Menten fit [2]: 8.79 µM |
